Test results from patent US8329699B2, “Pyrrolopyrazine kinase inhibitors” (Hoffmann-La Roche Inc., priority 2010, dated 2012).
Values joined by “and” are separate entries in the source; they are usually repeats but may differ in a detail not shown here. Identical values can stand only once.

Key:
[1] = target: T1, JAK3: Recombinant human kinase domain (h-jak3-sf21-c) (Homo sapiens, UniProt P52333); experiment: Determination of IC50 of Janus Kinase (JAK) inhibition, JAK3 (radioactive end-point assay with 33P-ATP); format: biochemical; conditions: ATP 1.5 uM, peptide 50 uM, 20 minutes, room temperature
T1 construct: JAK3: Recombinant human kinase domain from Millipore (Cat # 14-629) or prepared; purchased Millipore 14-629
Excerpt: Determination of IC50 of Janus Kinase (JAK) Inhibition:
Enzymes and peptide substrate used are described below: • JAK1: Recombinant human kinase domain from Invitrogen (Cat # PV4774) • JAK3: Recombinant human kinase domain from Millipore (Cat # 14-629) or prepared. • JAK2: Recombinant human kinase domain from Millipore (Cat # 14-640) • Substrate: N-terminally biotinylated 14-mer peptide derived from activation loop of JAK1 with sequence of the peptide substrate: Biotin-[…]
Assay conditions used are described below: • Assay Buffer: JAK Kinase Buffer: 50 mM Hepes [pH 7.2], 10 mM MgCl2, 1 mM DTT, 1 mg/mL BSA. The assay is carried out in this buffer. • Assay Format The kinase activity of all three JAK kinases is measured using a radioactive, end-point assay and with trace amounts of^33P-ATP. The assays are carried out in 96-well polypropylene plates. Experimental Method:
All concentrations are final in the reaction mixture and all incubations are carried at room temperature. Assay steps are described below: • 1) Compounds are serially diluted in 100% DMSO typically at a 10× starting concentration of 1 mM. Final concentration of DMSO in the reaction is 10%. • 2) Compounds are preincubated with enzyme (0.5 nM JAK3 (commercially available), 0.2 nM JAK3 (prepared), 1 nM JAK2, 5 nM JAK1) for 10 minutes. • 3) Reactions are initiated by the addition of a cocktail of the two substrates (ATP and peptide premixed in the JAK Kinase Buffer). In the JAK2/JAK3 assays, ATP and the peptide are used at concentrations of 1.5 uM and 50 uM, respectively. JAK1 assay is carried out at an ATP concentration of 10 uM and a peptide concentration of 50 uM. • 4) The duration of the assay for JAK2 and JAK3 is 20 minutes. JAK1 assay is carried out for 40 minutes. With all three enzymes, reactions are terminated by the addition of 0.5M EDTA to a final concentration of 100 mM. • 5) 25 ul of terminated reactions are transferred to 150 ul of a 7.5% (v/v) slurry of streptavidin-coated sepharose beads in MgCl2- and CaCl2-free 1× Phosphate Buffered Saline containing 50 mM of EDTA in 96-well, 1.2 um MultiScreen-BV filter plates. • 6) After a 30-minute incubation, the beads are washed under vacuum with the following buffers: • a. 3 to 4 washes with 200 ul of 2M NaCl. • b. 3 to 4 washes with 200 ul of 2M NaCl plus 1% (v/v) phosphoric acid. • c. 1 wash with water. • 7) Washed plates are dried in a 60° C. oven for between 1 to 2 hours. • 8) 70 ul of Microscint 20 scintillation fluid is added to each well of filter plates and after at least 30 minutes of incubation, radioactive counts are measured in a Perkinelmer microplate scintillation counter.

T1 sequence (P52333 822-1111 limits assumed): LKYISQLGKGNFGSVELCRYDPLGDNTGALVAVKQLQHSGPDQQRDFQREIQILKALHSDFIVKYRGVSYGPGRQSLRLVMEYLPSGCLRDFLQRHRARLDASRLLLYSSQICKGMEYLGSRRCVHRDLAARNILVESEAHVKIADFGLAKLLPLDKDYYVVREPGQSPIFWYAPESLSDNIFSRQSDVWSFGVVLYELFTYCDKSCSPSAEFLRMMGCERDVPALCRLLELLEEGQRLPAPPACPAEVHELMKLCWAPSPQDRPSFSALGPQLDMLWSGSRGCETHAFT

Row | IC50 [1] | melting point | SMILES
1 | 5.2 nM | > 300 °C | O=C(NC1CCCCC1)c1c[nH]c2ncc(C3CC3)nc12 [Compound I-22, 2-Cyclopropyl-5H-pyrrolo[2,3-b]pyrazine-7-carboxylic acid cyclohexylamide]
2 | 13.3 nM | > 300 °C | O=C(NC1CCCC1)c1c[nH]c2ncc(C3CC3)nc12 [Compound I-23, 2-Cyclopropyl-5H-pyrrolo[2,3-b]pyrazine-7-carboxylic acid cyclopentylamide]
3 | 8 nM | 284 to 287 °C | CS(=O)(=O)N1CCCC(NC(=O)c2c[nH]c3ncc(C4CC4)nc23)C1 (stereo not drawn) [Compound I-24, 2-Cyclopropyl-5H-pyrrolo[2,3-b]pyrazine-7-carboxylic acid (1-methanesulfonyl-piperidin-3-yl)-amide]
4 | 26.3 nM | 280 to 281.1 °C and 280 to 281 °C | N#CCC1(NC(=O)c2c[nH]c3ncc(C4CC4)nc23)CCCC1 [Compound I-26, 2-Cyclopropyl-5H-pyrrolo[2,3-b]pyrazine-7-carboxylic acid (1-cyanomethyl-cyclopentyl)-amide]
5 | 17.3 nM | 266 to 269 °C | CCS(=O)(=O)N1CCCC(NC(=O)c2c[nH]c3ncc(C4CC4)nc23)C1 (stereo not drawn) [Compound I-27, 2-Cyclopropyl-5H-pyrrolo[2,3-b]pyrazine-7-carboxylic acid (1-ethanesulfonyl-piperidin-3-yl)-amide]
6 | 22 nM | 228 to 230 °C | CCCS(=O)(=O)N1CCCC(NC(=O)c2c[nH]c3ncc(C4CC4)nc23)C1 (stereo not drawn) [Compound I-28, 2-Cyclopropyl-5H-pyrrolo[2,3-b]pyrazine-7-carboxylic acid [1-(propane-1-sulfonyl)-piperidin-3-yl]-amide]
7 | 73.2 nM | 255 to 258 °C | CC(C)S(=O)(=O)N1CCCC(NC(=O)c2c[nH]c3ncc(C4CC4)nc23)C1 (stereo not drawn) [Compound I-29, 2-Cyclopropyl-5H-pyrrolo[2,3-b]pyrazine-7-carboxylic acid [1-(propane-2-sulfonyl)-piperidin-3-yl]-amide]
8 | 55.5 nM | 278 to 281 °C | CS(=O)(=O)N1CCC[C@H](NC(=O)c2c[nH]c3ncc(C4CC4)nc23)C1 [Compound I-30, 2-Cyclopropyl-5H-pyrrolo[2,3-b]pyrazine-7-carboxylic acid ((S)-1-methanesulfonyl-piperidin-3-yl)-amide]
9 | 3.7 nM | 277 to 280 °C | CS(=O)(=O)N1CCC[C@@H](NC(=O)c2c[nH]c3ncc(C4CC4)nc23)C1 [Compound I-31, 2-Cyclopropyl-5H-pyrrolo[2,3-b]pyrazine-7-carboxylic acid ((R)-1-methanesulfonyl-piperidin-3-yl)-amide]
10 | 1.1 nM | 295 to 297 °C | CC1(C)CCCCC1NC(=O)c1c[nH]c2ncc(C3CC3)nc12 (stereo not drawn) [Compound I-32, 2-Cyclopropyl-5H-pyrrolo[2,3-b]pyrazine-7-carboxylic acid (2,2-dimethyl-cyclohexyl)-amide]
11 | 153 nM | 255 to 257 °C | O=C(NC1CCCCC1)c1c[nH]c2ncc(Oc3ccccc3)nc12 [Compound I-33, 2-Phenoxy-5H-pyrrolo[2,3-b]pyrazine-7-carboxylic acid cyclohexylamide]
12 | 424 nM | 245 to 247 °C | O=C(NC1CCCCC1)c1c[nH]c2ncc(Oc3ccc(F)cc3F)nc12 [Compound I-34, 2-(2,4-Difluoro-phenoxy)-5H-pyrrolo[2,3-b]pyrazine-7-carboxylic acid cyclohexylamide]
13 | 167 nM | 273 to 275 °C | CC(=O)N1CCC(NC(=O)c2c[nH]c3ncc(C4CC4)nc23)CC1 [Compound I-36, 2-Cyclopropyl-5H-pyrrolo[2,3-b]pyrazine-7-carboxylic acid (1-acetyl-piperidin-4-yl)-amide]
14 | 120 nM | 242 to 245 °C | CC(=O)N1CCC(NC(=O)c2c[nH]c3ncc(C4CC4)nc23)C1 (stereo not drawn) [Compound I-37, 2-Cyclopropyl-5H-pyrrolo[2,3-b]pyrazine-7-carboxylic acid (1-acetyl-pyrrolidin-3-yl)-amide]
15 | 74.2 nM | 215 to 218 °C | CC(=O)N1CCCC(NC(=O)c2c[nH]c3ncc(C4CC4)nc23)C1 (stereo not drawn) [Compound I-38, 2-Cyclopropyl-5H-pyrrolo[2,3-b]pyrazine-7-carboxylic acid (1-acetyl-piperidin-3-yl)-amide]
